The structures appear in SMILES notation.

T1 sequence (P41597 whole entry, species assumed): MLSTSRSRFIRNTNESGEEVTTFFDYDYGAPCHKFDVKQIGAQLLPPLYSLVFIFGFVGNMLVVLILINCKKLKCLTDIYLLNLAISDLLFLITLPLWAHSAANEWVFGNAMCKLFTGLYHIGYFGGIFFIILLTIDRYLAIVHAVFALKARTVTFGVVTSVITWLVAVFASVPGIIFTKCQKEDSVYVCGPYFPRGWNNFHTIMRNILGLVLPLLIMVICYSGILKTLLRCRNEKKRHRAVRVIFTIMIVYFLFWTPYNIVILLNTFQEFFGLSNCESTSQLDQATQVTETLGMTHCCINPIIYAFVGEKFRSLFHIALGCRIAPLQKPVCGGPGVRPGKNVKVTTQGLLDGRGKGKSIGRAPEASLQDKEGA

This assay concerns the target T1, CCR2 (Homo sapiens, UniProt P41597).
T1 construct: expressed in transfected cells
The assay is described as follows: CCR2 calcium activity assay on FLIPR Tetra in HEK-Gqi5 cells stably expressing CCR2. Type of assay: cell-based. As to the method: HEK-Gqi5 cells stably expressing CCR2 were cultured in (DMEM high glucose, 10% FBS, 1% PSA, 400 μg/ml geneticin and 50 μg/ml hygromycin. Appropriate positive control chemokines (MCP-1, MIP1A or RANTES) was used as the positive control agonist for screening compound-induced calcium activity assayed on the FLIPR^Tetra. The drug plates were prepared in 384-well microplates using the EP3 and the MuItiPROBE robotic liquid handling systems. Compounds were synthesized and tested for CCR2 activity.
As to `CN(C)c1ccc(S(=O)(=O)Nc2ccc(Cl)cc2NS(=O)(=O)c2ccc3c(c2)c(=O)sn3C)cc1` [N-[5-chloro-2-({[4-(dimethylamino)phenyl]sulfonyl}amino)phenyl]-1-methyl-3-oxo-1,3-dihydro-2,1-benzisothiazole-5-sulfonamide], the “CCR2 % ANTAG” value is given as 64% and the IC50 (as a rule, the concentration at which inhibition is half-maximal) was 1650 nM.

In the case of `COc1cccc(NS(=O)(=O)c2ccc3c(c2)c(=O)sn3C)c1OC` [N-(2,3-dimethoxyphenyl)-1-methyl-3-oxo-1,3-dihydro-2,1-benzisothiazolesulfonamide], the “CCR2 % ANTAG” value was determined as 55% and the IC50 was 3830 nM.

Regarding `COc1ccc(S(=O)(=O)Nc2ccc(Cl)cc2NS(=O)(=O)c2ccc3c(c2)c(=O)sn3C)cc1OC` [N-(5-chloro-2-{[(3,4-dimethoxyphenyl)sulfonyl]amino}phenyl)-1-methyl-3-oxo-1,3-dihydro-2,1-benzisothiazole-5-sulfonamide], the “CCR2 % ANTAG” value was 93% and the IC50 turned out to be 1020 nM.

On to `Cn1sc(=O)c2cc(S(=O)(=O)Nc3cccc4c3OCO4)ccc21` [N-1,3-benzodioxol-4-yl-1-methyl-3-oxo-1,3-dihydro-2,1-benzisothiazole-5-sulfonamide], for which the “CCR2 % ANTAG” value was found to be 73% and the IC50 turned out to be 1940 nM.

With `Cn1sc(=O)c2cc(S(=O)(=O)N3CCC(NS(=O)(=O)c4cccs4)C3)ccc21` (centres unmarked) [N-{1-[(1-methyl-3-oxo-1,3-dihydro-2,1-benzisothiazol-5-yl)sulfonyl]pyrrolidin-3-yl}thiophene-2-sulfonamide], the “CCR2 % ANTAG” value is 44% and the IC50 stood at 2760 nM.

Regarding `Cn1sc(=O)c2cc(S(=O)(=O)Nc3cc(Cl)ccc3NS(=O)(=O)c3cccs3)ccc21` [N-{5-chloro-2-[(2-thienylsulfonyl)amino]phenyl}-1-methyl-3-oxo-1,3-dihydro-2,1-benzisothiazole-5-sulfonamide], the “CCR2 % ANTAG” value is on record as 98% and the IC50 worked out at 234 nM.

As for `CC(=O)Nc1ccc(S(=O)(=O)Nc2ccc(Cl)cc2NS(=O)(=O)c2ccc3c(c2)c(=O)sn3C)cc1` [N-(4-{[(4-chloro-2-{[(1-methyl-3-oxo-1,3-dihydro-2,1-benzisothiazol-5-yl)sulfonyl]amino}phenyl)amino]sulfonyl}phenyl)acetamide], the “CCR2 % ANTAG” value is 80% and the IC50 stood at 2230 nM.

Regarding `Cn1sc(=O)c2cc(S(=O)(=O)N[C@@H]3CCCC[C@@H]3NS(=O)(=O)c3cccs3)ccc21` (relative stereo) [rel-1-methyl-3-oxo-N-{(1R,2S)-2-[(2-thienylsulfonyl)amino]cyclohexyl}-1,3-dihydro-2,1-benzisothiazole-5-sulfonamide], the “CCR2 % ANTAG” value was 65% and the IC50 turned out to be 2180 nM.

`Cn1sc(=O)c2cc(S(=O)(=O)Nc3c(Cl)cccc3NS(=O)(=O)c3cccs3)ccc21` [N-{2-chloro-6-[(2-thienylsulfonyl)amino]phenyl}-1-methyl-3-oxo-1,3-dihydro-2,1-benzisothiazole-5-sulfonamide]: the “CCR2 % ANTAG” value worked out at 106% and the IC50 worked out at 468 nM.

For the compound `Cn1sc(=O)c2cc(S(=O)(=O)Nc3cc(Cl)ccc3NS(=O)(=O)c3cc(Cl)cc(Cl)c3)ccc21` [N-(5-chloro-2-{[(3,5-dichlorophenyl)sulfonyl]amino}phenyl)-1-methyl-3-oxo-1,3-dihydro-2,1-benzisothiazole-5-sulfonamide], the “CCR2 % ANTAG” value is given as 94% and the IC50 is 2600 nM.

Regarding `CC(C)c1ccc(NS(=O)(=O)c2cccs2)c(NS(=O)(=O)c2ccc3c(c2)c(=O)sn3C)c1` [N-{5-isopropyl-2-[(2-thienylsulfonyl)amino]phenyl}-1-methyl-3-oxo-1,3-dihydro-2,1-benzisothiazole-5-sulfonamide], the “CCR2 % ANTAG” value amounted to 85% and the IC50 came out at 425 nM.

Regarding `Cn1sc(=O)c2cc(S(=O)(=O)NC(C)(C)CNS(=O)(=O)c3cccs3)ccc21` [N-{1,1-dimethyl-2-[(2-thienylsulfonyl)amino]ethyl}-1-methyl-3-oxo-1,3-dihydro-2,1-benzisothiazole-5-sulfonamide], the “CCR2 % ANTAG” value was found to be 20% and the IC50 amounted to 2490 nM.

For the compound `Cn1sc(=O)c2cc(S(=O)(=O)Nc3ccccc3CNS(=O)(=O)c3cccs3)ccc21` [1-methyl-3-oxo-N-(2-{[(2-thienylsulfonyl)amino]methyl}phenyl)-1,3-dihydro-2,1-benzisothiazole-5-sulfonamide], the “CCR2 % ANTAG” value is given as 61%.

Consider `Cn1sc(=O)c2cc(S(=O)(=O)Nc3cccc(SC(F)(F)F)c3)ccc21` [1-methyl-3-oxo-N-{3-[(trifluoromethyl)thio]phenyl}-1,3-dihydro-2,1-benzisothiazole-5-sulfonamide], for which the “CCR2 % ANTAG” value worked out at 85%.

In the case of `Cn1sc(=O)c2cc(S(=O)(=O)Nc3cccc(Cl)c3NS(=O)(=O)c3cccs3)ccc21` [N-{3-chloro-2-[(2-thienylsulfonyl)amino]phenyl}-1-methyl-3-oxo-1,3-dihydro-2,1-benzisothiazole-5-sulfonamide], the “CCR2 % ANTAG” value is listed as 100% and the IC50 was determined as 823 nM.

In the case of `Cn1sc(=O)c2cc(S(=O)(=O)Nc3ccccc3NS(=O)(=O)c3cc(Cl)c(Cl)s3)ccc21` [N-(2-{[(4,5-dichloro-2-thienyl)sulfonyl]amino}phenyl)-1-methyl-3-oxo-1,3-dihydro-2,1-benzisothiazole-5-sulfonamide], the “CCR2 % ANTAG” value is 89% and the IC50 stood at 359 nM.

Consider `Cn1sc(=O)c2cc(S(=O)(=O)Nc3ccccc3NS(=O)(=O)c3nnc[nH]3)ccc21` [1-methyl-3-oxo-N-{2-[(4H-1,2,4-triazol-3-ylsulfonyl)amino]phenyl}-1,3-dihydro-2,1-benzisothiazole-5-sulfonamide], for which the “CCR2 % ANTAG” value amounted to 90% and the IC50 came out at 1100 nM.

As to `Cn1sc(=O)c2cc(S(=O)(=O)Nc3ccc(Cl)cc3NS(=O)(=O)c3cccs3)ccc21` [N-{4-chloro-2-[(2-thienylsulfonyl)amino]phenyl}-1-methyl-3-oxo-1,3-dihydro-2,1-benzisothiazole-5-sulfonamide], the “CCR2 % ANTAG” value came to 102% and the IC50 worked out at 393 nM.

With `Cn1sc(=O)c2cc(S(=O)(=O)Nc3cc(Cl)c(Cl)cc3NS(=O)(=O)c3cc(Cl)c(Cl)s3)ccc21` [N-(4,5-dichloro-2-{[(4,5-dichloro-2-thienyl)sulfonyl]amino}phenyl)-1-methyl-3-oxo-1,3-dihydro-2,1-benzisothiazole-5-sulfonamide], the “CCR2 % ANTAG” value stood at 103% and the IC50 was 2340 nM.

For the compound `Cn1sc(=O)c2cc(S(=O)(=O)N[C@@H]3CCCC[C@H]3NS(=O)(=O)c3cccs3)ccc21` (relative stereo) [rel-1-methyl-3-oxo-N-{(1R,2R)-2-[(2-thienylsulfonyl)amino]cyclohexyl}-1,3-dihydro-2,1-benzisothiazole-5-sulfonamide], the “CCR2 % ANTAG” value is 79% and the half-inhibitory concentration (IC50) worked out at 2370 nM.

In the case of `CN(C)c1ccc(NS(=O)(=O)c2cccs2)c(NS(=O)(=O)c2ccc3c(c2)c(=O)sn3C)c1`, the “CCR2 % ANTAG” value was 35% and the IC50 amounted to 551 nM.

On to `Cn1sc(=O)c2cc(S(=O)(=O)Nc3ccccc3NC(=O)Nc3cccs3)ccc21` [1-methyl-3-oxo-N-(2-{[(2-thienylamino)carbonyl]amino}phenyl)-1,3-dihydro-2,1-benzisothiazole-5-sulfonamide], for which the “CCR2 % ANTAG” value turned out to be 58% and the IC50 was 2530 nM.

In the case of `COc1ccc(NS(=O)(=O)c2ccc3c(c2)c(=O)sn3C)c(NS(=O)(=O)c2cccs2)c1` [N-{4-methoxy-2-[(2-thienylsulfonyl)amino]phenyl}-1-methyl-3-oxo-1,3-dihydro-2,1-benzisothiazole-5-sulfonamide], the “CCR2 % ANTAG” value is on record as 60% and the IC50 is 1300 nM.

With `Cn1sc(=O)c2cc(S(=O)(=O)Nc3ccccc3NS(=O)(=O)c3ccccc3)ccc21` [1-methyl-3-oxo-N-{2-[(phenylsulfonyl)amino]phenyl}-1,3-dihydro-2,1-benzisothiazole-5-sulfonamide], the “CCR2 % ANTAG” value is listed as 97% and the IC50 came to 887 nM.

In the case of `Cn1sc(=O)c2cc(S(=O)(=O)N3CCN(S(=O)(=O)c4cccs4)c4ccccc43)ccc21` [1-methyl-5-{[4-(2-thienylsulfonyl)-3,4-dihydroquinoxalin-1(2H)-yl]sulfonyl}-2,1-benzisothiazol-3(1H)-one], the “CCR2 % ANTAG” value is 65% and the concentration for half-maximal inhibition (IC50) amounted to 2080 nM.

For the compound `Cn1sc(=O)c2cc(S(=O)(=O)NC3CCN(S(=O)(=O)c4cccs4)C3)ccc21` (centres unmarked) [1-methyl-3-oxo-N-[1-(2-thienylsulfonyl)pyrrolidin-3-yl]-1,3-dihydro-2,1-benzisothiazole-5-sulfonamide], the “CCR2 % ANTAG” value is on record as 22%.

In the case of `Cn1sc(=O)c2cc(S(=O)(=O)Nc3ccccc3NS(=O)(=O)c3ccccc3F)ccc21` [N-(2-{[(2-fluorophenyl)sulfonyl]amino}phenyl)-1-methyl-3-oxo-1,3-dihydro-2,1-benzisothiazole-5-sulfonamide], the “CCR2 % ANTAG” value is recorded as 103% and the half-maximal inhibitory concentration (IC50) is 360 nM.

Regarding `Cn1sc(=O)c2cc(S(=O)(=O)Nc3ccc(C#N)cc3NS(=O)(=O)c3cccs3)ccc21` [N-{4-cyano-2-[(2-thienylsulfonyl)amino]phenyl}-1-methyl-3-oxo-1,3-dihydro-2,1-benzisothiazole-5-sulfonamide], the “CCR2 % ANTAG” value is given as 31%.

Regarding `Cn1sc(=O)c2cc(S(=O)(=O)Nc3ccccc3NS(=O)(=O)c3cc(Cl)cc(Cl)c3)ccc21` [N-(2-{[(3,5-dichlorophenyl)sulfonyl]amino}phenyl)-1-methyl-3-oxo-1,3-dihydro-2,1-benzisothiazole-5-sulfonamide], the “CCR2 % ANTAG” value is on record as 95% and the IC50 was 2570 nM.

On to `Cn1sc(=O)c2cc(S(=O)(=O)Nc3ccccc3NS(=O)(=O)c3c[nH]cn3)ccc21` [N-{2-[(1H-imidazol-4-ylsulfonyl)amino]phenyl}-1-methyl-3-oxo-1,3-dihydro-2,1-benzisothiazole-5-sulfonamide], for which the “CCR2 % ANTAG” value is reported as 0% and the IC50 is > 8300 nM.

The values are drawn from patent US8524745B2 (Allergan, Inc., priority 2011, dated 2013).
